Here are results for 28 compounds from ChEMBL document CHEMBL3045573, “Design, synthesis, and quantitative structure-activity relationship study of herbicidal analogues of pyrazolo[5,1-d][1,2,3,5]tetrazin-4(3H)ones” (2007).

What all share (assay type): functional
Details in all cases: read-out: GI

The test system of assay [1] is Echinochloa crus-galli. The assay can be described thus: Herbicidal activity against Echinochloa crus-galli (barnyard grass) assessed as inhibition of seedling growth at 10 ug/mL for 65 hr at 28 +/- 1 degC by cup test.
For assay [2], the system named is Echinochloa crus-galli. The assay can be described thus: Herbicidal activity against Echinochloa crus-galli (barnyard grass) assessed as inhibition of seedling growth at 100 ug/mL for 65 hr at 28 +/- 1 degC by cup test.
In assay [3] the test system is Brassica rapa subsp. oleifera. The assay can be described thus: Herbicidal activity against Brassica rapa subsp. oleifera assessed as inhibition of root growth of rape seed at 100 ug/mL for 65 hr at 28 +/- 1 degC by root test.
The subject of assay [4] is Brassica rapa subsp. oleifera. The assay can be described thus: Herbicidal activity against Brassica rapa subsp. oleifera assessed as inhibition of root growth of rape seed at 10 ug/mL for 65 hr at 28 +/- 1 degC by root test.

In the case of `CCOC(=O)c1c(C(F)(F)F)nn2c(=O)n(-c3cccc(C(F)(F)F)c3)nnc12`, the inhibition of growth at 10 µg/mL (with Echinochloa crus-galli [1]; in assay [4]) was 0% in each case. The inhibition of growth at 100 µg/mL in the assay on Echinochloa crus-galli [2] is 1%; in assay [3], 14%.
As to `CCOC(=O)c1c(C(F)(F)F)nn2c(=O)n(-c3ccc(Cl)c(C(F)(F)F)c3)nnc12`, the inhibition of growth at 10 µg/mL with Echinochloa crus-galli [1] turned out to be 0%; in assay [4], 13%. The inhibition of growth at 100 µg/mL amounted to 0% with Echinochloa crus-galli [2] and 14% in assay [3].
Turning to `C=CCOc1cc(-n2nnc3c(C(=O)OCC)c(C(F)(F)F)nn3c2=O)c(F)cc1Cl`, the inhibition of growth at 10 µg/mL (in the assay on Echinochloa crus-galli [1]; in assay [4]) was 0% throughout. Further, the inhibition of growth at 100 µg/mL with Echinochloa crus-galli [2] is 16%; in assay [3] it was 2%.
In the case of `CCOC(=O)c1c(C(F)(F)F)nn2c(=O)n(-c3ccc(Cl)cc3C(F)(F)F)nnc12`, the inhibition of growth at 10 µg/mL (in the assay on Echinochloa crus-galli [1]; in assay [4]) was 0% each time. Also, the inhibition of growth at 100 µg/mL is 21% with Echinochloa crus-galli [2] and 0% in assay [3].
Take `C=CCOc1cc(-n2nnc3c(C(=O)OCC)c(C)nn3c2=O)c(F)cc1Cl`: the inhibition of growth at 10 µg/mL (in the assay with Echinochloa crus-galli [1]; in assay [4]) was 0% in each case. Besides, the inhibition of growth at 100 µg/mL in the assay with Echinochloa crus-galli [2] was 24%; in assay [3], 0%.
For `CCCOc1cc(-n2nnc3c(C(=O)OCC)c(SC)nn3c2=O)c(F)cc1Cl`, the inhibition of growth at 10 µg/mL (in the assay on Echinochloa crus-galli [1]; in assay [4]) was 0% each time. Besides, the inhibition of growth at 100 µg/mL in the assay on Echinochloa crus-galli [2] came to 12%; in assay [3] it was 2%.
`CCOC(=O)c1c(SC)nn2c(=O)n(-c3cccc(C(F)(F)F)c3)nnc12`: the inhibition of growth at 10 µg/mL in the assay on Echinochloa crus-galli [1] amounted to 0%; in assay [4], 34%. Further, the inhibition of growth at 100 µg/mL in the assay with Echinochloa crus-galli [2] was 0%; in assay [3], 37%.
`CC#COc1cc(-n2nnc3c(C(=O)OCC)c(C(F)(F)F)nn3c2=O)c(F)cc1Cl`: the inhibition of growth at 10 µg/mL (in the assay on Echinochloa crus-galli [1]; in assay [4]) was 0% in each case. The results for the inhibition of growth at 100 µg/mL (with Echinochloa crus-galli [2]; in assay [3]) were 28% and 0%, respectively.
`C=CCOc1cc(-n2nnc3c(C(=O)OCC)c(SC)nn3c2=O)c(F)cc1Cl`: the inhibition of growth at 10 µg/mL (in the assay with Echinochloa crus-galli [1]; in assay [4]) was 0% each time. The inhibition of growth at 100 µg/mL in the assay on Echinochloa crus-galli [2] was determined as 22%; in assay [3], 25%.
`CCOC(=O)c1c(C(F)(F)F)nn2c(=O)n(-c3ccccc3C(F)(F)F)nnc12`: the values for the inhibition of growth at 10 µg/mL (in the assay with Echinochloa crus-galli [1]; in assay [4]) were 0% and 7%, respectively. The inhibition of growth at 100 µg/mL (in the assay on Echinochloa crus-galli [2]; in assay [3]) was 9% throughout.
In the case of `CCOC(=O)c1c(C(F)(F)F)nn2c(=O)n(-c3cc(C(F)(F)F)ccc3Cl)nnc12`, the inhibition of growth at 10 µg/mL (in the assay on Echinochloa crus-galli [1]; in assay [4]) was 0% throughout. The inhibition of growth at 100 µg/mL is 2% with Echinochloa crus-galli [2] and 10% in assay [3].
Take `CCOC(=O)c1c(SC)nn2c(=O)n(-c3ccc(Cl)c(C(F)(F)F)c3)nnc12`: the inhibition of growth at 10 µg/mL in the assay with Echinochloa crus-galli [1] turned out to be 0%; in assay [4], 22%. Further, the inhibition of growth at 100 µg/mL amounted to 26% in the assay on Echinochloa crus-galli [2] and 24% in assay [3].
On to `CCOC(=O)c1c(C(F)(F)F)nn2c(=O)n(-c3c(Cl)cc(C(F)(F)F)cc3Cl)nnc12`, for which the inhibition of growth at 10 µg/mL worked out at 0% in the assay with Echinochloa crus-galli [1] and 2% in assay [4]. In addition, the results for the inhibition of growth at 100 µg/mL (in the assay on Echinochloa crus-galli [2]; in assay [3]) were 15% and 22%, respectively.
On to `CC#COc1cc(-n2nnc3c(C(=O)OCC)c(SC)nn3c2=O)c(F)cc1Cl`, for which the inhibition of growth at 10 µg/mL (with Echinochloa crus-galli [1]; in assay [4]) was 0% in each case. Moreover, the results for the inhibition of growth at 100 µg/mL (with Echinochloa crus-galli [2]; in assay [3]) were 32% and 0%, respectively.
Consider `CCOC(=O)c1c(C)nn2c(=O)n(-c3cc(C(F)(F)F)ccc3Cl)nnc12`, for which the values for the inhibition of growth at 10 µg/mL (in the assay with Echinochloa crus-galli [1]; in assay [4]) were 0% and 61%, respectively. For the same compound, the inhibition of growth at 100 µg/mL in the assay on Echinochloa crus-galli [2] was determined as 0%; in assay [3] it was 65%.
On to `CCOC(=O)c1c(SC)nn2c(=O)n(-c3c(Cl)cc(C(F)(F)F)cc3Cl)nnc12`, for which the inhibition of growth at 10 µg/mL (with Echinochloa crus-galli [1]; in assay [4]) was 3% in each case. The inhibition of growth at 100 µg/mL with Echinochloa crus-galli [2] amounted to 28%; in assay [3], 9%.
With `CCOC(=O)c1c(C)nn2c(=O)n(-c3ccccc3C(F)(F)F)nnc12`, the inhibition of growth at 10 µg/mL was 0% in the assay on Echinochloa crus-galli [1] and 5% in assay [4]. Further, the inhibition of growth at 100 µg/mL in the assay with Echinochloa crus-galli [2] was 6%; in assay [3], 86%.
On the same counts, the results for `CCOC(=O)c1c(C(F)(F)F)nn2c(=O)n(-c3ccc(C(F)(F)F)cc3)nnc12` are 9%, 0%, 18% and 2%.
The corresponding values for `CCOC(=O)c1c(SC)nn2c(=O)n(-c3cc(C(F)(F)F)ccc3Cl)nnc12` are 2%, 0%, 11% and 13%.
The corresponding values for `CCCOc1cc(-n2nnc3c(C(=O)OCC)c(C(F)(F)F)nn3c2=O)c(F)cc1Cl` are 0%, 0%, 20% and 5%.
As for `CCOC(=O)c1c(SC)nn2c(=O)n(-c3cc(OC(C)C)c(Cl)cc3F)nnc12`, the inhibition of growth at 10 µg/mL (with Echinochloa crus-galli [1]; in assay [4]) was 0% in each case. Moreover, the figures for the inhibition of growth at 100 µg/mL (in the assay on Echinochloa crus-galli [2]; in assay [3]) were 20% and 13%, respectively.
As to `CCOC(=O)c1c(SC)nn2c(=O)n(-c3ccc(C(F)(F)F)cc3)nnc12`, the inhibition of growth at 10 µg/mL is 2% in the assay on Echinochloa crus-galli [1] and 4% in assay [4]. Besides, the inhibition of growth at 100 µg/mL in the assay on Echinochloa crus-galli [2] was 22%; in assay [3], 18%.
Take `CCOC(=O)c1c(C)nn2c(=O)n(-c3ccc(C(F)(F)F)cc3)nnc12`: the inhibition of growth at 10 µg/mL amounted to 0% in the assay with Echinochloa crus-galli [1] and 82% in assay [4]. Moreover, the inhibition of growth at 100 µg/mL was determined as 10% in the assay on Echinochloa crus-galli [2] and 90% in assay [3].
The corresponding values for `CCOC(=O)c1c(C)nn2c(=O)n(-c3c(Cl)cc(C(F)(F)F)cc3Cl)nnc12` are 0%, 4%, 22% and 25%.
Regarding `CCOC(=O)c1c(SC)nn2c(=O)n(-c3ccccc3C(F)(F)F)nnc12`, the inhibition of growth at 10 µg/mL (in the assay on Echinochloa crus-galli [1]; in assay [4]) was 0% each time. Further, the inhibition of growth at 100 µg/mL came out at 0% in the assay on Echinochloa crus-galli [2] and 23% in assay [3].
Turning to `CCOC(=O)c1c(C)nn2c(=O)n(-c3ccc(Cl)cc3C(F)(F)F)nnc12`, the results for the inhibition of growth at 10 µg/mL (in the assay on Echinochloa crus-galli [1]; in assay [4]) were 6% and 0%, respectively. Moreover, the inhibition of growth at 100 µg/mL in the assay with Echinochloa crus-galli [2] came to 14%; in assay [3], 63%.
In the case of `CCCOc1cc(-n2nnc3c(C(=O)OCC)c(C)nn3c2=O)c(F)cc1Cl`, the inhibition of growth at 10 µg/mL (in the assay with Echinochloa crus-galli [1]; in assay [4]) was 0% in each case. The results for the inhibition of growth at 100 µg/mL (in the assay on Echinochloa crus-galli [2]; in assay [3]) were 18% and 0%, respectively.
Regarding `CCOC(=O)c1c(C)nn2c(=O)n(-c3ccc(Cl)c(C(F)(F)F)c3)nnc12`, the inhibition of growth at 10 µg/mL came out at 0% in the assay on Echinochloa crus-galli [1] and 89% in assay [4]. The inhibition of growth at 100 µg/mL was determined as 4% in the assay with Echinochloa crus-galli [2] and 89% in assay [3].
